Assay results reported in US8546603B2, “Substituted cyclopentanes having prostaglandin activity” (Allergan, Inc., priority 2007, dated 2013).
Where two headings read alike, the source gives them in different places.

How the values were obtained:
EP3 = target: T1, EP3 (Homo sapiens, UniProt P43115); assay: EP3 functional assay; format: cell-based
T1 sequence (P43115 1-390): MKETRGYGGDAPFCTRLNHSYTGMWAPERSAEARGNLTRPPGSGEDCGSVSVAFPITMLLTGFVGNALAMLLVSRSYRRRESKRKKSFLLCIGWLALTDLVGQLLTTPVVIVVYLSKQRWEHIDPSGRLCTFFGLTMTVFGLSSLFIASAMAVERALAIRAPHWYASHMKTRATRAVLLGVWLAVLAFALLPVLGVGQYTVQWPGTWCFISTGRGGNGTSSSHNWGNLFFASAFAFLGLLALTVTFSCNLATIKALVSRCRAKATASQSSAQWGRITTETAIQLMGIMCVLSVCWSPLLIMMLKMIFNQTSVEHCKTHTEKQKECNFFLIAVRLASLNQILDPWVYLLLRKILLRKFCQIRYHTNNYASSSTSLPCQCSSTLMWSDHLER
Source text: (§1) U.S. patent application Ser. No. 11/553,143, filed on Oct. 26, 2006, incorporated by reference herein, describes the methods used to obtain the in vitro data in Table 1 below.

EP2 [1] = target: T2, EP2 (Homo sapiens, UniProt P43116); assay: EP2 binding assay
Source text: as §1

EP2 [2] = target: T2, EP2; assay: EP2 cAMP assay; format: cell-based
Source text: as §1

EP1 = target: T3, EP1 (Homo sapiens, UniProt P34995); assay: EP1 functional assay; format: cell-based
T3 sequence (P34995 1-402): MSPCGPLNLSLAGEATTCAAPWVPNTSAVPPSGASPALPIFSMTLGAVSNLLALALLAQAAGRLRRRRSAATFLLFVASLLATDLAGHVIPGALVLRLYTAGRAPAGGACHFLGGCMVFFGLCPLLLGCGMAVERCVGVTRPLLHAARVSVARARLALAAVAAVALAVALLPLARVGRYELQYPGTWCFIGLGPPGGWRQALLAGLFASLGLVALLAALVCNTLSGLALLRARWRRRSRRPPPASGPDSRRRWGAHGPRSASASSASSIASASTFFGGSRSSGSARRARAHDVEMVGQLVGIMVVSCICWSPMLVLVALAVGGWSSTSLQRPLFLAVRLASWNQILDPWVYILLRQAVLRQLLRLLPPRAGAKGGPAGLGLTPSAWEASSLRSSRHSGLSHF
Source text: as §1

EP2 [3] = target: T2, EP2; assay: EP2 Ca2+ signal assay; format: cell-based; conditions: for EP2 Ca2+ signal % PGE2: relative to PGE2
Source text: as §1

EP4 [4] = target: T4, EP4 (Homo sapiens, UniProt P35408); assay: EP4 binding assay
Source text: as §1

EP4 [5] = target: T4, EP4; assay: EP4 Ca2+ signal assay; format: cell-based; conditions: for EP4 Ca2+ signal % PGE2: relative to PGE2
Source text: as §1

TP = target: T5, TP (Homo sapiens, UniProt P21731); assay: TP functional assay; format: cell-based
T5 sequence (P21731 1-343): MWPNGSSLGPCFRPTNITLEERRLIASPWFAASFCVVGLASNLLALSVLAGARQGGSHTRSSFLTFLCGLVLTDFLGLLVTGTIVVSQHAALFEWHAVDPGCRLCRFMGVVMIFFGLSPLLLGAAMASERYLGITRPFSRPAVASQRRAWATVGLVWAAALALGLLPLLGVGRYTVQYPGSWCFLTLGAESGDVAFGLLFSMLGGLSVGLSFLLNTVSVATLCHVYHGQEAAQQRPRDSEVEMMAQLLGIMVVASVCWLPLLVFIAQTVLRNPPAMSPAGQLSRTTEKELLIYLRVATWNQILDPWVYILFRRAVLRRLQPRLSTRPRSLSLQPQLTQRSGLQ
Source text: as §1

T2 sequence (P43116 whole entry): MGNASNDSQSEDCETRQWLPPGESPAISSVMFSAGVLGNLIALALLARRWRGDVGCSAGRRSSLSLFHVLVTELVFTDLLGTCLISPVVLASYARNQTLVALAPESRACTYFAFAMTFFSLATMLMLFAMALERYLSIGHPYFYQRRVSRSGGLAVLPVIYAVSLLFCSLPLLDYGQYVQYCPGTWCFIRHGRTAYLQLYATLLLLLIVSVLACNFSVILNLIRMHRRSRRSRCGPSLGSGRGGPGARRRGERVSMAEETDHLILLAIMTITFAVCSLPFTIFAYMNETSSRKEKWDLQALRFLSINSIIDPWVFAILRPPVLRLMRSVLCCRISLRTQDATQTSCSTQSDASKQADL
T4 sequence (P35408 whole entry): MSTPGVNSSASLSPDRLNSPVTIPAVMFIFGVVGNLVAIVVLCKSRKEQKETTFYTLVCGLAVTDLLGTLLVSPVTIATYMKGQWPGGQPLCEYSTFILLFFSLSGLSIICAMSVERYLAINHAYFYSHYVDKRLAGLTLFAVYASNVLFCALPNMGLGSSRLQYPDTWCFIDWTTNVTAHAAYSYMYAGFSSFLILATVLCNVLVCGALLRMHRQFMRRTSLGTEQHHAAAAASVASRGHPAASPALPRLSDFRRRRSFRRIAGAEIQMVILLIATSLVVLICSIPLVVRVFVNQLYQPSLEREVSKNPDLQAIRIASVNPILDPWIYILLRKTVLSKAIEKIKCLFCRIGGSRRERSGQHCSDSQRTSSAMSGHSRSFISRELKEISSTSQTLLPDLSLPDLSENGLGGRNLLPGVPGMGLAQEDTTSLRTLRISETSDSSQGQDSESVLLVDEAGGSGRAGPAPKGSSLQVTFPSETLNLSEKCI

Row | SMILES | EC50 (EP3) [nM] | EC50 (EP2 [1]) [nM] | EP2 Binding % Inh (EP2 [1]) [%] | EC50 (EP2 [2]) [nM] | EC50 (EP1) [nM] | EC50 (EP2 [3]) [nM] | EP2 Ca2+ signal % PGE2 (EP2 [3]) [%] | EC50 (EP4 [4]) [nM] | EP4 Binding % Inh (EP4 [4]) [%] | EC50 (EP4 [5]) [nM] | EP4 Ca2+ signal % PGE2 (EP4 [5]) [%] | EP2 Binding % Inh (EP2 [1]; listed as 219309) [%] | EP2 Ca2+ signal % PGE2 (EP2 [3]; listed as 219309) [%] | EP4 Binding % Inh (EP4 [4]; listed as 219309) [%] | EC50 (TP) [nM] | EP2 Binding % Inh (EP2 [1]; listed as 219310) [%] | EP2 Ca2+ signal % PGE2 (EP2 [3]; listed as 219310) [%] | EP4 Binding % Inh (EP4 [4]; listed as 219310) [%]
1 | C[C@@H](O)CCC[C@H](O)/C=C/[C@@H]1[C@@H](CCCc2ccc(C(=O)O)s2)[C@H](Cl)C[C@H]1O [AGN-217510] | 499 | 66 | 99 | 0.06 | 724 | 7.4 | 106 | 2350 | 64 | 145 | 121 | – | – | – | – | – | – | –
2 | C[C@H](O)CCC[C@H](O)/C=C/[C@@H]1[C@@H](CCCc2ccc(C(=O)O)s2)[C@H](Cl)C[C@H]1O [AGN-221568] | – | 381 | 91 | 1.4 | – | 20 | 91 | 1280 | 98 | 35 | 120 | – | – | – | – | – | – | –
3 | COC(/C=C/[C@@H]1[C@@H](CCCc2ccc(C(=O)O)s2)[C@H](Cl)C[C@H]1O)CCC[C@@H](C)O (stereo partly shown) [AGN-219309] | – | 3310 | – | 25 | – | 4020 | – | > 10000 | – | – | – | 68 | 63 | 9 | – | – | – | –
4 | C[C@@H](O)CCC[C@H](O)/C=C/[C@H]1[C@H](O)CC(=O)[C@@H]1CCCCCCC(=O)O [AGN-191287] | 21 | 487 | 87 | 0.9 | 2760 | 34 | 100 | 1670 | 75 | 193 | 102 | – | – | – | 5270 | – | – | –
5 | COC(/C=C/[C@@H]1[C@@H](CCCc2ccc(C(=O)O)s2)[C@H](Cl)C[C@H]1O)CCC[C@@H](C)O (stereo partly shown) [AGN-219310] | – | 171 | – | 3 | – | 281 | – | > 10000 | – | – | – | – | – | – | – | 90 | 77 | 6
6 | C[C@@H](O)CCC[C@H](O)/C=C/[C@H]1[C@H](O)CC(=O)[C@@H]1C/C=C\CCCC(=O)O [AGN-191286] | 11 | 530 | 92 | 0.7 | 308 | 28 | 100 | 1510 | 75 | 192 | 100 | – | – | – | 3010 | – | – | –
